According to patent US10280150B2 (FORMA TM2, Inc., priority 2014, dated 2019):

These molecules were tested against IDH1-R132H recombinant protein (Homo sapiens (Human), UniProt O75874, R132H) (assay: IDH1-R132H enzymatic assay (inhibition of NADPH consumption, diaphorase/resazurin readout)). Details: read-out: Enzyme IDH1 R132H IC50 (Range).
Type: biochemical
Protocol: Assays were performed in a 384-well black plate. An aliquot of 250 nL of compound was incubated with 10 μL of 30 nM IDH1-R132H or 10 nM IDH1-R132C recombinant protein in assay buffer (50 mM Tris pH=7.5, 150 mM NaCl, 5 mM MgCl2, 0.1% (w/v) Bovine Serum Albumin, and 0.01% Triton X-100) in each well at 25° C. for 15 minutes. After the plate was centrifuged briefly, an aliquot of 10 μL of 2 mM α-ketoglutarate and 20 μM NADPH solution prepared in assay buffer was then added to each well and the reaction was maintained at 25° C. for 45 minutes. An aliquot of 10 μL of diaphorase solution (0.15 U/mL diaphorase and 30 µM Resazurin in assay buffer) was added to each well. The plate was maintained at 25° C. for 15 minutes and then read on a plate reader with excitation and emission wavelengths at 535 nm and 590 nm, respectively. The IC50 of a given compound was calculated by fitting the dose response curve of inhibition of NADPH consumption at a given concentration with the four parameter logistic equation.

IDH1-R132H recombinant protein, sequence (O75874 whole entry R132H): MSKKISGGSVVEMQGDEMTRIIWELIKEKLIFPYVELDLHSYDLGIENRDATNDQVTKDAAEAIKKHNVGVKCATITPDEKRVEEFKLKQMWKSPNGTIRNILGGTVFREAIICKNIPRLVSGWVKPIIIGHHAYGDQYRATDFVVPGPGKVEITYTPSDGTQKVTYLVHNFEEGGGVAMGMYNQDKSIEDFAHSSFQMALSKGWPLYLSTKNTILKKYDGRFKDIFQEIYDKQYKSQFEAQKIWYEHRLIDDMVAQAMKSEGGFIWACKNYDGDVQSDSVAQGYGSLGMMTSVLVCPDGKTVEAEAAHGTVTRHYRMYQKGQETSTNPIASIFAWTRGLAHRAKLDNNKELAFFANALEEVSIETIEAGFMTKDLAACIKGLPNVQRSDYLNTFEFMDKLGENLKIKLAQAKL

Row | SMILES | IC50 [µM]
1 | C[C@H](Nc1nccc(N(CC(C)(C)C)S(C)(=O)=O)n1)c1cc2cc(Cl)ccc2[nH]c1=O [Compound I-1] | < 0.1
2 | C[C@H](Nc1nccc(CN(C2CC2)S(C)(=O)=O)n1)c1cc2cc(Cl)ccc2[nH]c1=O [Compound I-6, (S)—N-((2-((1-(6-Chloro-2-oxo-1,2-dihydroquinolin-3-yl)ethyl)amino)pyrimidin-4-yl)methyl)-N-cyclopropylmethanesulfonamide] | 0.1 to 1
3 | C[C@H](Nc1nccc(NC2CC2)n1)c1cc2cc(Cl)ccc2[nH]c1=O [Compound I-9, (S)-6-Chloro-3-(1-((4-(cyclopropylamino)pyrimidin-2-yl)amino)ethyl)quinolin-2(1H)-one] | 1 to 10
4 | C[C@H](Nc1nccc(N(CC(F)(F)F)S(C)(=O)=O)n1)c1cc2cc(Cl)ccc2[nH]c1=O [Compound I-13] | < 0.1
5 | CC(C)CS(=O)(=O)Nc1ccnc(N[C@@H](C)c2cc3cc(Cl)ccc3[nH]c2=O)n1 [Compound I-18] | 1 to 10
6 | C[C@H](Nc1nccc(N(CC(C)(C)O)S(C)(=O)=O)n1)c1cc2cc(Cl)ccc2[nH]c1=O [Compound I-19] | 1 to 10
7 | CC(C)CC(=O)N(c1ccnc(N[C@@H](C)c2cc3cc(Cl)ccc3[nH]c2=O)n1)C1CC1 [Compound I-24, (S)—N-(2-((1-(6-Chloro-2-oxo-1,2-dihydroquinolin-3-yl)ethyl)amino)pyrimidin-4-yl)-N-cyclopropyl-3-methylbutanamide] | 0.1 to 1
8 | CC(=O)N(CC(C)(C)C)c1ccnc(N[C@@H](C)c2cc3cc(Cl)ccc3[nH]c2=O)n1 [Compound I-26, (S)—N-(2-((1-(6-Chloro-2-oxo-1,2-dihydroquinolin-3-yl)ethyl)amino)pyrmidin-4-yl)-N-neopentylacetamide] | < 0.1
9 | C[C@H](Nc1nccc(NC(=O)CC2CCOCC2)n1)c1cc2cc(Cl)ccc2[nH]c1=O [Compound I-27, (S)—N-(2-((1-(6-chloro-2-oxo-1,2-dihydroquinolin-3-yl)ethyl)amino)pyrimidin-4-yl)-2-(tetrahydro-2H-pyran-4-yl)acetamide] | 0.1 to 1
10 | CC(=O)N(c1ccnc(N[C@@H](C)c2cc3cc(Cl)ccc3[nH]c2=O)n1)C1CC1 [Compound I-28, (S)—N-(2-((1-(6-chloro-2-oxo-1,2-dihydroquinolin-3-yl)ethyl)amino)pyrimidin-4-yl)-N-cyclopropylacetamide] | 0.1 to 1
11 | CC(=O)N(CC(C)C)c1ccnc(NC(C)c2cc3cc(Cl)ccc3[nH]c2=O)n1 (stereo not drawn) [Compound I-34] | 0.1 to 1
12 | CC(C)[C@H]1COC(=O)N1c1ccnc(N[C@H](C)c2cc3cc(Cl)ccc3[nH]c2=O)n1 [Compound I-43, (S)-3-(2-(((R)-1-(6-Chloro-2-oxo-1,2-dihydroquinolin-3-yl)ethyl)amino)pyrimidin-4-yl)-4-isopropyloxazolidin-2-one] | > 10
13 | CC(Nc1nccc(N2CCOC2=O)n1)c1cc2ccccc2[nH]c1=O (stereo not drawn) [Compound I-49] | 0.1 to 1
14 | O=C1CCCN1c1ccnc(NCc2cc3cc(Cl)ccc3[nH]c2=O)n1 [Compound I-50] | 0.1 to 1
15 | Cc1ncn(-c2ccnc(N[C@@H](C)c3cc4cc(Cl)ccc4[nH]c3=O)n2)c1C [Compound I-53, (S)-6-Chloro-3-(1-((4-(4,5-dimethyl-1H-imidazol-1-yl)pyrimidin-2-yl)amino)ethyl)quinolin-2(1H)-one] | < 0.1
16 | Cc1nc(N[C@@H](C)c2cc3cc(Cl)ccc3[nH]c2=O)ncc1Br [Compound I-103] | 0.1 to 1
17 | CC(C)C[S@@+]([O-])c1ccnc(N[C@@H](C)c2cc3cc(Cl)ccc3[nH]c2=O)n1 [Compound I-106] | 1 to 10
18 | CC(C)CSc1ccnc(N[C@@H](C)c2cc3cc(Cl)ccc3[nH]c2=O)n1 [Compound I-107] | 1 to 10
19 | CC(C)CS(=O)(=O)c1ccnc(N[C@@H](C)c2cc3cc(Cl)ccc3[nH]c2=O)n1 [Compound I-108] | 0.1 to 1
20 | CC(C)C[S@+]([O-])c1ccnc(N[C@@H](C)c2cc3cc(Cl)ccc3[nH]c2=O)n1 [Compound I-109] | < 0.1
21 | CC(C)CC(c1ccnc(N[C@@H](C)c2cc3cc(Cl)ccc3[nH]c2=O)n1)S(C)(=O)=O (stereo partly drawn) [Compound I-118] | 0.1 to 1
22 | C[C@H](Nc1nccc(CN2CCCS2(=O)=O)n1)c1cc2cc(Cl)ccc2[nH]c1=O [Compound I-119, (S)-6-chloro-3-(1-((4-((1,1-dioxidoisothiazolidin-2-yl)methyl)pyrimidin-2-yl)amino)ethyl) quinolin-2(1H)-one] | 0.1 to 1
23 | C[C@H](Nc1nccc(C2CCCS2(=O)=O)n1)c1cc2cc(Cl)ccc2[nH]c1=O (stereo partly drawn) [Compound I-120] | 0.1 to 1
24 | C[C@H](Nc1nccc(NC2CCOC2)n1)c1cc2cc(Cl)ccc2[nH]c1=O (stereo partly drawn) [Compound I-122, 6-Chloro-3-((1S)-1-((4-((tetrahydrofuran-3-yl)amino)pyrimidin-2-yl)amino)ethyl) quinolin-2(1H)-one] | 1 to 10
25 | C[C@H](Nc1nccc(Nc2ncco2)n1)c1cc2cc(Cl)ccc2[nH]c1=O [Compound I-127, (S)-6-Chloro-3-(1-((4-(oxazol-2-ylamino)pyrimidin-2-yl)amino)ethyl)quinolin-2(1H)-one] | 0.1 to 1
26 | CC(C)CN(c1ccnc(N[C@@H](C)c2cc3cc(Cl)ccc3[nH]c2=O)n1)c1ncco1 [Compound I-128] | 0.1 to 1
27 | C[C@H](Nc1nccc(CNS(C)(=O)=O)n1)c1cc2cc(Cl)ccc2[nH]c1=O [Compound I-132] | 1 to 10
28 | COC(=O)C(c1ccnc(N[C@@H](C)c2cc3cc(Cl)ccc3[nH]c2=O)n1)S(C)(=O)=O (stereo partly drawn) [Compound I-134] | 1 to 10

More lines, now with the values ahead:

Row | IC50 [µM] | SMILES
29 | > 10 | C[C@H](Nc1nccc(NS(C)(=O)=O)n1)c1cc2cc(Cl)ccc2[nH]c1=O [Compound I-17]
30 | 1 to 10 | CC(=O)N(c1ccnc(N[C@@H](C)c2cc3cc(Cl)ccc3[nH]c2=O)n1)C(C)(C)C [Compound I-30]
31 | 0.1 to 1 | CC(C)CC(=O)Nc1ccnc(N[C@@H](C)c2cc3cc(Cl)ccc3[nH]c2=O)n1 [Compound I-31]
32 | < 0.1 | COCC(=O)Nc1ccnc(N[C@@H](C)c2cc3cc(Cl)ccc3[nH]c2=O)n1 [Compound I-32, (S)—N-(2-((1-(6-Chloro-2-oxo-1,2-dihydroquinolin-3-yl)ethyl)amino)pyrimidin-4-yl)-2-methoxyacetamide]
33 | 0.1 to 1 | C[C@H](Nc1nccc(-n2cccc2)n1)c1cc2cc(Cl)ccc2[nH]c1=O [Compound I-52]
34 | 1 to 10 | Cc1nccn1-c1ccnc(N[C@@H](C)c2cc3cc(Cl)ccc3[nH]c2=O)n1 [Compound I-56]
35 | 0.1 to 1 | Cc1cn(-c2ccnc(N[C@@H](C)c3cc4cc(Cl)ccc4[nH]c3=O)n2)cn1 [Compound I-57]
36 | 1 to 10 | C[C@H](Nc1nccc(-c2cncnc2)n1)c1cc2cc(Cl)ccc2[nH]c1=O [Compound I-62, (S)-3-(1-(4,5′-bipyrimidin-2-ylamino)ethyl)-6-chloroquinolin-2(1H)-one]
37 | 0.1 to 1 | C[C@H](Nc1nccc(-c2ccnn2C)n1)c1cc2cc(Cl)ccc2[nH]c1=O [Compound I-67, (S)-6-Chloro-3-(1-((4-(1-methyl-1H-pyrazol-5-yl)pyrimidin-2-yl)amino)ethyl)quinolin-2(1H)-one]
38 | 1 to 10 | Cc1noc(C)c1-c1ccnc(N[C@@H](C)c2cc3cc(Cl)ccc3[nH]c2=O)n1 [Compound I-69]
39 | 1 to 10 | C[C@H](Nc1nccc(-c2cnoc2)n1)c1cc2cc(Cl)ccc2[nH]c1=O [Compound I-70]
40 | 1 to 10 | CC(=O)c1ccccc1-c1ccnc(N[C@@H](C)c2cc3cc(Cl)ccc3[nH]c2=O)n1 [Compound I-72]
41 | 1 to 10 | CC(=O)Nc1ccccc1-c1ccnc(N[C@@H](C)c2cc3cc(Cl)ccc3[nH]c2=O)n1 [Compound I-73]
42 | 1 to 10 | Cc1cc(-c2ccnc(N[C@@H](C)c3cc4cc(Cl)ccc4[nH]c3=O)n2)n(C)n1 [Compound I-76]
43 | 1 to 10 | Cc1nn(C)cc1-c1ccnc(N[C@@H](C)c2cc3cc(Cl)ccc3[nH]c2=O)n1 [Compound I-77]
44 | 1 to 10 | Cc1nc(C)c(-c2ccnc(N[C@@H](C)c3cc4cc(Cl)ccc4[nH]c3=O)n2)s1 [Compound I-78]
45 | 1 to 10 | Cc1n[nH]c(C)c1-c1ccnc(N[C@@H](C)c2cc3cc(Cl)ccc3[nH]c2=O)n1 [Compound I-82]
46 | 0.1 to 1 | C[C@H](Nc1nccc(S(C)(=O)=O)n1)c1cc2cc(Cl)ccc2[nH]c1=O [Compound I-105, (S)-6-Chloro-3-(1-((4-(methylsulfonyl)pyrimidin-2-yl)amino)ethyl)quinolin-2(1H)-one]
47 | 1 to 10 | C[C@H](Nc1nccc(SCc2ccccc2)n1)c1cc2cc(Cl)ccc2[nH]c1=O [Compound I-110]
48 | 1 to 10 | C[C@H](Nc1nccc(N(C)C(=O)N(C)C)n1)c1cc2cc(Cl)ccc2[nH]c1=O [Compound I-125, (S)-1-(2-((1-(6-chloro-2-oxo-1,2-dihydroquinolin-3-yl)ethyl)amino)pyrimidin-4-yl)-1,3,3-trimethylurea]
49 | > 10 | C[C@H](Nc1nccc(NC(=O)N(C)C)n1)c1cc2cc(Cl)ccc2[nH]c1=O [Compound I-126, (S)-3-(2-((1-(6-chloro-2-oxo-1,2-dihydroquinolin-3-yl)ethyl)amino)pyrimidin-4-yl)-1,1-dimethylurea]
50 | 0.1 to 1 | C[C@H](Nc1nccc(CC(N)=O)n1)c1cc2cc(Cl)ccc2[nH]c1=O [Compound I-130, (S)-2-(2-((1-(6-chloro-2-oxo-1,2-dihydroquinolin-3-yl)ethyl)amino)pyrimidin-4-yl) acetamide]
51 | 0.1 to 1 | CNC(=O)Cc1ccnc(N[C@@H](C)c2cc3cc(Cl)ccc3[nH]c2=O)n1 [Compound I-131]
